Marks after values point to notes of the source that are not given here.

The test system of the assay is S. aureus. In words: Pre-treatment of catheterized mice with lysostaphin before S. aureus challenge. It counts as in vivo. Particulars: for CFUs catheter / CFUs heart / CFUs liver: rinsed; for Animals infected: rinsed after 22 hours, 10^4 S. aureus, 4 days. How it is done: Jugular vein catheterized mice were pretreated with one or two doses of lysostaphin via catheter prior to being challenged with S. aureus as in Example 4. The mice received either one dose of lysostaphin (40 mg/kg) 24 hours pre-challenge or two doses of lysostaphin (40 mg/kg) 24 hours and 2 hours pre-challenge. Lysostaphin solutions were left in the catheters during challenge. Control mice received standard Phosphate Buffered Saline (PBS). The mice were sacrificed four days post-challenge.
In the above example, the lysostaphin solution was left in the catheters at the time of bacterial challenge, so it could be argued that this lysostaphin in solution was protecting the catheters from S. aureus infection. In order to perform a more rigorous experiment, Catheterized mice were instilled with a single dose of 40 mg/kg lysostaphin in 200 ul PBS through the catheter. One group also received a subsequent 50 ul of lock solution containing the same concentration of lysostaphin as the pre-instillation dose. Twenty two hours later, the catheters of all of these mice were rinsed thoroughly with PBS. Two hours post-rinsing, the animals were challenged with 10^4 S. aureus. The animals were sacrificed 4 days post S. aureus challenge and the catheters and organs processed for bacteria.

Where [1] appears, read: 40 mg/kg i.c., no lock, results from the one infected animal.

Regarding lysostaphin, for the setting “40 mg/kg i.c. and lock”, the CFUs catheter amounted to 0 CFUs, the CFUs heart came out at 0 CFUs, the CFUs liver was determined as 0 CFUs and the Animals infected is given as 0/4. Further, where the note is “40 mg/kg i.c., no lock”, the CFUs catheter worked out at 0 CFUs and the Animals infected is reported as 1/4. In addition, under setting [1], the CFUs heart result is on record as “(287)^a CFUs” and the CFUs liver entry is listed as “(341)^a CFUs”. Besides, the “infection status of pretreated mice” value (40 mg/kg via catheter 24 hours or 24 hours and 2 hours pre-challenge, solution left in catheters, four days post-challenge) is recorded as “All eight treated mice were S. aureus free”. Also, for the setting “single dose of 40 mg/kg pre-instilled, excess rinsed out”, the “protection of catheters from formation of S. aureus biofilms” value is on record as “will protect the catheters from formation of S. aureus biofilms”.

For the origin of these results see patent US7572439B2, “Enzyme disruption of bacterial biofilms” (priority 2002, dated 2009).
